Data taken from patent US5023239A, “Sialosyl cholesterol, process for producing the same, and neuropathy remedy comprising the same” (MECT Corporation, priority 1986, dated 1991).

Key:
ddy male mice = assay: Acute toxicity test, intravenous injection; format: in vivo, mouse; conditions: ddy male mice of 45 weeks age
Experimental: Acute toxicity test was conducted by intravenously injecting the compounds into ddy male mice of 45 weeks age.

[1] = system: Neuroblastoma Cell, Neuro 2a Strain; assay: Effect on proliferation / neurite propagation of neuroblastoma cell, Neuro 2a strain; format: cell-based, mouse; conditions: for activity (in words): 24 hours cultivation; for minimal effective concentration: 48 hours after addition
Experimental: Experiments for confirming the activity of the present compound for promoting propagation of neurites will be explained below.
Effect On Proliferation of Neuroblastoma Cell, Neuro 2a Strain
Neuro 2a was floated on culture medium consisting of 90% of Dulbecco's Modified Eagle's Midium, and 10% of fetal calf serum (FCS), and containing 100 units/ml of penicillin G and 100 micro g/ml of streptomycin sulfate, and then cultivated at 37° C. in a carbon dioxide incubator containing air into which 5% of carbon dioxide was incorporated. The vessel as used was a polystyrene tray having a diameter of 60 mm. 1 to 2×10^4 of the neuroblastoma cells were implanted in each tray and cultivated for 48 hours. The FCS-containing culture was removed from the resultant cell culture. […] When 24 and 48 hours had passed after the addition of these medicines, the number of the living cells increased in the culture, the number of the neurites increased, and the length of the neurites were measured. The experiment was conducted on three trays with respect to each concentration. The resultant data were expressed by average value+standard error (S.E).

In the case of `CC(=O)NC1C(O)CC(OC2CCC3(C)C(=CCC4C3CCC3(C)C(C(C)CCCC(C)C)CCC43)C2)(C(=O)O)OC1C(O)C(O)CO` [Compound (5), sodium 5-acetoamide-2-O-(5-cholesten-3-beta-yl)-3,5-dideoxy-beta-D-glycero-D-galacto-2-nonulopyranosonate], the LD50 (ddy male mice) is reported as 291 mg/kg, the “activity (in words)” value ([1]; 10 ng/ml) is reported as “indicated activity” and the “Length of neurite ± S.E.” value ([1]; 24 hrs, 10 ng/ml) is reported as 89.4 ± 4.23 μm/cell. For the same compound, the “Number of neurite propagated cells” value ([1]; 24 hrs, 10 ng/ml) was 124, the “Number of neurites ± S.E.” value ([1]; 24 hrs, 10 ng/ml) was 1.3 ± 0.05 number/cell and the “Rate of neurite propagation (%)” value ([1]; 24 hrs, 10 ng/ml) was 34.3%. For the same compound, the “Total number of cells” value ([1]; 24 hrs, 10 ng/ml) was 361, the “Length of neurite ± S.E.” value ([1]; 24 hrs, 100 ng/ml) was 116.4 ± 5.59 μm/cell and the “Number of neurite propagated cells” value ([1]; 24 hrs, 100 ng/ml) was 156. For the same compound, the “Number of neurites ± S.E.” value ([1]; 24 hrs, 100 ng/ml) was 1.2 ± 0.03 number/cell, the “Rate of neurite propagation (%)” value ([1]; 24 hrs, 100 ng/ml) was 40.6% and the “Total number of cells” value ([1]; 24 hrs, 100 ng/ml) was 384. The “Length of neurite ± S.E.” value ([1]; 24 hrs, 1 μg/ml) was 130.8 ± 5.16 μm/cell, the “Number of neurite propagated cells” value ([1]; 24 hrs, 1 μg/ml) was 213 and the “Number of neurites ± S.E.” value ([1]; 24 hrs, 1 μg/ml) was 1.2 ± 0.04 number/cell. For the same compound, the “Rate of neurite propagation (%)” value ([1]; 24 hrs, 1 μg/ml) was 53.8%, the “Total number of cells” value ([1]; 24 hrs, 1 μg/ml) was 396 and the minimal effective concentration [1] was 100 ng/mL. For the same compound, the “Length of neurite ± S.E.” value ([1]; 48 hrs, 10 ng/ml) was 110.6 ± 4.93 μm/cell, the “Number of neurite propagated cells” value ([1]; 48 hrs, 10 ng/ml) was 226 and the “Number of neurites ± S.E.” value ([1]; 48 hrs, 10 ng/ml) was 1.2 ± 0.04 number/cell. The “Rate of neurite propagation (%)” value ([1]; 48 hrs, 10 ng/ml) was 47.9%, the “Total number of cells” value ([1]; 48 hrs, 10 ng/ml) was 472 and the “Length of neurite ± S.E.” value ([1]; 48 hrs, 100 ng/ml) was 135.1 ± 6.23 μm/cell. For the same compound, the “Number of neurite propagated cells” value ([1]; 48 hrs, 100 ng/ml) was 212, the “Number of neurites ± S.E.” value ([1]; 48 hrs, 100 ng/ml) was 1.3 ± 0.04 number/cell and the “Rate of neurite propagation (%)” value ([1]; 48 hrs, 100 ng/ml) was 50.2%. For the same compound, the “Total number of cells” value ([1]; 48 hrs, 100 ng/ml) was 422, the “Length of neurite ± S.E.” value ([1]; 48 hrs, 1 μg/ml) was 138.9 ± 5.39 μm/cell and the “Number of neurite propagated cells” value ([1]; 48 hrs, 1 μg/ml) was 252. The “Number of neurites ± S.E.” value ([1]; 48 hrs, 1 μg/ml) was 1.2 ± 0.03 number/cell, the “Rate of neurite propagation (%)” value ([1]; 48 hrs, 1 μg/ml) was 55.5% and the “Total number of cells” value ([1]; 48 hrs, 1 μg/ml) was 454. The “growth / propagation of neurites (in words)” value ([1]; Neuro 2a culture) was “strong activity for the propagation of the neurites”, the “activity relative to GMl (times as high)” value ([1]; vs GMl, from minimal effective concentrations at 48 hours, molecular weights considered) was 42 times and the “activity relative to GQlb (times as high)” value ([1]; vs GQlb, from minimal effective concentrations at 48 hours, molecular weights considered) was 27 times.

“<NAcNeu (alpha 2-8) NAcNeu (alpha 2-3)>Gal (beta 1-3) GalNAc (beta 1-4)- NAcNeu-(alpha 2-8) <NAcNeu- (alpha 2-3)>-Gal (beta 1-4) Glc (beta 1-1)-Ceramide [GQlb]” was tested, and the “activity (in words)” value [1] was “do not provide any activity”, the “Length of neurite ± S.E.” value ([1]; 24 hrs, 10 ng/ml) was 88.5 ± 5.00 μm/cell and the “Number of neurite propagated cells” value ([1]; 24 hrs, 10 ng/ml) was 174. The “Number of neurites ± S.E.” value ([1]; 24 hrs, 10 ng/ml) was 1.3 ± 0.05 number/cell, the “Rate of neurite propagation (%)” value ([1]; 24 hrs, 10 ng/ml) was 51.8% and the “Total number of cells” value ([1]; 24 hrs, 10 ng/ml) was 336. The “Length of neurite ± S.E.” value ([1]; 24 hrs, 100 ng/ml) was 86.0 ± 4.72 μm/cell, the “Number of neurite propagated cells” value ([1]; 24 hrs, 100 ng/ml) was 159 and the “Number of neurites ± S.E.” value ([1]; 24 hrs, 100 ng/ml) was 1.3 ± 0.04 number/cell. For the same compound, the “Rate of neurite propagation (%)” value ([1]; 24 hrs, 100 ng/ml) was 48.0%, the “Total number of cells” value ([1]; 24 hrs, 100 ng/ml) was 331 and the “Length of neurite ± S.E.” value ([1]; 24 hrs, 1 μg/ml) was 97.6 ± 4.95 μm/cell. The “Number of neurite propagated cells” value ([1]; 24 hrs, 1 μg/ml) was 157, the “Number of neurites ± S.E.” value ([1]; 24 hrs, 1 μg/ml) was 1.4 ± 0.05 number/cell and the “Rate of neurite propagation (%)” value ([1]; 24 hrs, 1 μg/ml) was 51.0%. The “Total number of cells” value ([1]; 24 hrs, 1 μg/ml) was 308, the “Length of neurite ± S.E.” value ([1]; 24 hrs, 10 μg/ml) was 114.9 ± 5.98 μm/cell and the “Number of neurite propagated cells” value ([1]; 24 hrs, 10 μg/ml) was 205. For the same compound, the “Number of neurites ± S.E.” value ([1]; 24 hrs, 10 μg/ml) was 1.4 ± 0.06 number/cell, the “Rate of neurite propagation (%)” value ([1]; 24 hrs, 10 μg/ml) was 63.9% and the “Total number of cells” value ([1]; 24 hrs, 10 μg/ml) was 321. The minimal effective concentration [1] was 10 micro g/ml, the “Length of neurite ± S.E.” value ([1]; 48 hrs, 10 ng/ml) was 100.4 ± 5.76 μm/cell and the “Number of neurite propagated cells” value ([1]; 48 hrs, 10 ng/ml) was 158. For the same compound, the “Number of neurites ± S.E.” value ([1]; 48 hrs, 10 ng/ml) was 1.5 ± 0.06 number/cell, the “Rate of neurite propagation (%)” value ([1]; 48 hrs, 10 ng/ml) was 42.6% and the “Total number of cells” value ([1]; 48 hrs, 10 ng/ml) was 371. The “Length of neurite ± S.E.” value ([1]; 48 hrs, 100 ng/ml) was 90.4 ± 6.06 μm/cell, the “Number of neurite propagated cells” value ([1]; 48 hrs, 100 ng/ml) was 153 and the “Number of neurites ± S.E.” value ([1]; 48 hrs, 100 ng/ml) was 1.2 ± 0.04 number/cell. The “Rate of neurite propagation (%)” value ([1]; 48 hrs, 100 ng/ml) was 44.1%, the “Total number of cells” value ([1]; 48 hrs, 100 ng/ml) was 347 and the “Length of neurite ± S.E.” value ([1]; 48 hrs, 1 μg/ml) was 106.5 ± 6.40 μm/cell. The “Number of neurite propagated cells” value ([1]; 48 hrs, 1 μg/ml) was 182, the “Number of neurites ± S.E.” value ([1]; 48 hrs, 1 μg/ml) was 1.3 ± 0.04 number/cell and the “Rate of neurite propagation (%)” value ([1]; 48 hrs, 1 μg/ml) was 47.4%. For the same compound, the “Total number of cells” value ([1]; 48 hrs, 1 μg/ml) was 384, the “Length of neurite ± S.E.” value ([1]; 48 hrs, 10 μg/ml) was 122.5 ± 6.99 μm/cell and the “Number of neurite propagated cells” value ([1]; 48 hrs, 10 μg/ml) was 214. For the same compound, the “Number of neurites ± S.E.” value ([1]; 48 hrs, 10 μg/ml) was 1.3 ± 0.04 number/cell, the “Rate of neurite propagation (%)” value ([1]; 48 hrs, 10 μg/ml) was 61.8% and the “Total number of cells” value ([1]; 48 hrs, 10 μg/ml) was 346.
